In patent US9040527B2, “Pyrimidinediamine kinase inhibitors” (Rigel Pharmaceuticals, Inc., priority 2008, dated 2015):

Columns and labels:
PLK1 [1] = target: T1, PLK1 (Homo sapiens, UniProt P53350); test: In vitro PLK1 ELISA assay (biochemical); parameters: purchased Cell Signalling 7728
Method: (§1) Inhibition of PLK1 was measured by quantifying phosphorylation of PLK1 substrates using chemiluminescent and fluorogenic probes. The protocols for these assays are provided below.
In Vitro PLK1 ELISA Assay
1. Preparation of Assay Plates.
Costar 96-well black or white solid flat high binding plates (Fisher Scientific, Catalog No. 07-200-591) were coated with Neutravidin (Pierce, Catalog No. 31000) using the following protocol. A 0.01 mg/mL solution of Neutravidin in 1× Phosphate Buffered Saline (“PBS”, Cellgro/Mediatech, Catalog No. 21-040-CV) was added to each well (100 μL/well) and was incubated for 18-24 hours at 4° C. The plates were then washed with 1× Phosphate Buffer Saline—Tween (“PBST”, Calbiochem, Catalog No. 524653) buffer using a plate washer. The plates were treated with bovine serum albumin (“BSA”, Sigma, Catalog No. A7906) to block non-specific binding sites, by adding a 2% BSA solution in 1×PBST buffer to each well (100 μL/well) and incubating the plates for 1 hour at room temperature. The plates were then washed with 1×PBST buffer using a plate washer.
2. PLK1-Catalyzed Phosphorylation Reaction
An aqueous buffer solution A having the following composition was prepared:
20 mM HEPES (Cellgro/Mediatech, Catalog No. 25-060Ci), pH 7.2;
5 mM MgCl2 (Sigma, Catalog No. M2393);
2 mM MnCl2.4H2O (EM Biosciences, Catalog No. MX0185-2);
1 mM Dithiothreitol (“DTT”, Fluka, Catalog No. B4184).
Next, the substrate solution B was prepared by adding 2.6 μL of 10 mM ATP (Sigma, Catalog No. A7699) and 6.4 μL of the 1 mM PLK1 substrate, CHK2-derived peptide Biotin-SSLETVSTQELYSIP (custom synthesized at Anaspec) SEQ ID: No. 1, to 4691 μL of the buffer solution A. The concentration of the ATP in solution B is 5.44 μM (1.36×); the concentration of the PLK1 substrate in solution B is 1.36 μM (1.36×).
Compound solutions C of varying concentrations for each compound were prepared by dissolving each compound in dimethylsulfoxide (DMSO, Sigma, Catalog No. D2650) to varying concentrations, followed by adding 2 μL of each solution to 38 μL of the buffer solution A, thereby forming 10× compound solutions in 5% DMSO.
A PLK1 solution D was prepared by adding 8.4 μL of 100 μg/mL PLK1 (Cell Signalling, Catalog No. 7728) to 1392 μL of the buffer solution A, thereby forming 0.6 μg/mL (6×) PLK1 solution.
The aqueous 1.36× substrate solution B was added to each well (44 μL/well) resulting in binding of the substrate to the plate via biotin/neutravidin interaction. Then 10× compound solutions C for each tested compound at each tested concentration were added to each well (6 μL/well). Next, 6×PLK1 solution D was added to each well (10 μL/well).
The final concentrations of tested compounds in each well were 10 μM, 3.3 μM, 1.1 μM, 0.36 μM, 0.12 μM, 0.04 μM, 0.014 μM, and 0.005 μM.
The obtained reaction mixtures were incubated in the wells for 45 minutes at room temperature, allowing PLK1-catalyzed phosphorylation of the substrate to proceed. The plates were then washed with 1×PBST solution using a plate washer, such that the bound phosphorylated or unphosphorylated substrate remains attached to the wells upon washing.
The washed plates were developed by treating the plates with a primary antibody that is specific for the phosphorylated substrate, followed by treatment with a secondary antibody that is specific for the primary antibody, and that is capable of catalyzing a reaction that results in a chemiluminescent readout. The chemiluminescent readout was used to quantify the substrate phosphorylation, and, consequently, to determine IC50 values for PLK1 inhibition, and was measured using a luminometer (Perkin Elmer/Wallac plate reader). The plate development protocol is described below.
A mixed antibody solution E was prepared by adding 1 μL of the primary antibody, rabbit p-CHK2(T68) (Rockland, Catalog No. 401280), and 1 μL of the secondary antibody, HRP-goat anti-rabbit IgG (Jackson Immunoresearch Catalog No. 111-035-003) to 10000 μL of 0.1% BSA in 1×PBST buffer. […]

PLK1 [2] = target: T1, PLK1; test: Cellular PLK1 assay in K562 cells overexpressing CDC25C; assay type: cell-based; parameters: endogenous in cells; host or cells: K562 (human chronic myelogenous leukemia) overexpressing CDC25C, nocodazole-arrested; conditions: nocodazole arrested, cdc25c p-Ser198 readout
Method: as §1
1. Culturing of K562 Cells
Human chronic myelogenous leukemia K562 cells (American Tissue Culture Collection) overexpressing CDC25C, were grown in Growth Medium having the following composition: Iscove Dulbecco's Modified Eagle's Medium (“Iscove DMEM”, Mediatech/Cellgro, Cat. #10-013-CV), 10% Fetal Bovine Serum (“FBS”, SAFC Biosciences, Cat. #12106-500M), and 1% penicillin/streptomycin (“pen-strep”, Mediatech/Cellgro, Cat. #30-002-CI). The cells were plated in 96 well round bottom tissue culture plates (Fisher, Costar* Cell Culture plates, Cat. #07-200-95) at 100,000 cells per 50 μL of Growth Medium per well. Nocodazole (Sigma, Cat. # M1404) was added to the growth media to arrest the cells in the G2 or M phase, at 333 nM concentration. The cells were incubated with nocodazole for 18 hours at 37° C. prior to addition of tested compounds.
2. Treatment of Cells with the Tested Compounds
Solutions of tested compounds in DMSO at different concentrations were prepared using serial dilutions. Each compound was tested at 8 concentration points, 10 μM, 3.3 μM, 1.11 μM, 0.37 μM, 0.12 μM, 0.04 μM, 0.014 μM, 0.005 μM, duplicate replicates.
Two controls were performed: “DMSO alone” control in which nocodazole and DMSO were present but no compounds were added, and “nocodazole alone” control, in which only nocodazole was present, but neither DMSO nor compounds were added.
The solutions of compounds were prepared by diluting 10 mM compound 1:1 in DMSO (5 μL 10 mM compound and 5 μL DMSO), followed by 1:3 serial dilutions of compound in DMSO performed by diluting 3 μL of higher concentration compound solution serially into 6 μL DMSO to give 3-fold dilutions. Next, 3 μL of each compound solution at each concentration was transferred to 750 μL of Growth Medium. In “DMSO alone” control 3 μL of DMSO alone was added to 750 μL of Growth Medium.
After the diluted compounds were mixed well in the Growth Medium, 50 μL of each compound solution in DMSO/Growth Medium was transferred to each well of the 96-plate containing cells in 50 μL of Growth Medium/Nocodazole.
The cells and compounds were incubated for 120 minutes at 37° C., in an atmosphere containing 5% CO2.
3. Fixation and Permeabilization of the Cells
After the cells were incubated with compounds, the cells were spun down at 1,000 rpm for 5 minutes at 4° C. and supernatants were removed by flicking the plates. Cells were then washed with 200 μl of ice cold PBS, spun down again and supernatants removed. Cells were then fixed and permeabilized by addition of 100 μL/well of Fixation and Permeabilization Solution (1× buffer provided in BD Biosciences Cytofix/Cytoperm™ Fixation/Permeabilization kit, Cat. #554714) and incubation for 20 minutes at room temperature. The fixative was then removed by centrifugation (5 minutes at 2,000 rpm), and plates were flicked to remove the fixative and washed twice, each time with 200 μL/well BD Perm/Wash buffer (10× concentrate provided in BD Biosciences Cytofix/Cytoperm™ Fixation/Permeabilization kit, Cat. #554714, 1× buffer prepared by dilution in distilled H2O).
Cells were spun down at 1,000 rpm for 5 minutes at 4° C. Supernatants were removed by flicking the plates. A solution of a primary antibody specific for cdc25cp-Ser198 was prepared by diluting Rabbit cdc25c (Ser198) antibody (Cell Signaling, #9529L) 1:50 in a Fluorescence Activated Cell Sorting (“FACS”) Buffer (2% FBS in PBS). The cell pellets were resuspended in 50 μL of the primary antibody solution. 50 μL of FACS buffer was added to unstained controls. Staining was allowed to proceed overnight at room temperature.
The plates were then washed by addition of 200 μL of FACS Buffer to each well, were centrifuged and the supernatant was removed. […]

[3] = ELISA, CHK2-derived peptide substrate, read-out: PLK1 IC50 (μM) biochemical assay
[4] = read-out: IC50 in biochemical in vitro PLK1 ELISA assay (less than 10 μM)
[5] = read-out: IC50 in biochemical ELISA assay (less than 0.01 μM)

T1 sequence (P53350 whole entry): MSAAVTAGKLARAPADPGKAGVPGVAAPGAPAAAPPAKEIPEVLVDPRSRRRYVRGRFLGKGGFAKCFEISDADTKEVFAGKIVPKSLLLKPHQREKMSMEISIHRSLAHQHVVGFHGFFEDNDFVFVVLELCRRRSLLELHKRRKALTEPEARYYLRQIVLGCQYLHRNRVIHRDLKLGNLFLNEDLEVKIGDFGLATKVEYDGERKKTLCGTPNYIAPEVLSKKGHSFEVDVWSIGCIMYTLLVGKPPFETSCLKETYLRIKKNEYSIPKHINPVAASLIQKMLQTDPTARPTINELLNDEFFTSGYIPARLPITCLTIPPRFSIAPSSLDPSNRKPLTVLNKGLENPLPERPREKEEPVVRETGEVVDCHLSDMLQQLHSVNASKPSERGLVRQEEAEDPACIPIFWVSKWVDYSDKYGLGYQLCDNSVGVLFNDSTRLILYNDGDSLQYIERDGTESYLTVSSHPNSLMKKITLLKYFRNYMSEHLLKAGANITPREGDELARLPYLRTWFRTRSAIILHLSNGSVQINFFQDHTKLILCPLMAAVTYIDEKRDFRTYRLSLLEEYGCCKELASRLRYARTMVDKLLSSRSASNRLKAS

| IC50 (PLK1 [1]; [3]) [µM] | IC50 (PLK1 [1]; [4]) [µM] | IC50 (PLK1 [2]) [µM] | IC50 (PLK1 [1]; [5]) [µM] | Structure (SMILES) |
| --- | --- | --- | --- | --- |
| 5 to 10 | < 10 | ≥ 10 | – | CN1CCN(c2cccc(Nc3ncc(F)c(Nc4ccc5c(n4)N(CC4CCCCC4)C(=O)CO5)n3)c2)CC1 [compound 110, 4-(cyclohexylmethyl)-6-(5-fluoro-2-(3-(4-methylpiperazin-1-yl)phenylamino)pyrimidin-4-ylamino)-2H-pyrido[3,2-b][1,4]oxazin-3(4H)-one] |
| < 0.5 | < 10 | 0.5 to 5 | – | CCCN1C(=O)COc2ccc(Nc3nc(Nc4ccc(N5CC6CC5CN6C)c(C)c4)ncc3C)nc21 (stereo not shown) [compound 107, 6-(5-methyl-2-(3-methyl-4-(5-methyl-2,5-diazabicyclo[2.2.1]heptan-2-yl)phenylamino)pyrimidin-4-ylamino)-4-propyl-2H-pyrido[3,2-b][1,4]oxazin-3(4H)-one] |
| 0.5 to 5 | < 10 | 0.5 to 5 | – | CCCN1CCOc2ccc(Nc3nc(Nc4ccc(N5CC6CC5CN6C(C)=O)c(C)c4)ncc3F)nc21 (stereo not shown) [compound 37, 1-(5-(4-(5-fluoro-4-(4-propyl-3,4-dihydro-2H-pyrido[3,2-b][1,4]oxazin-6-ylamino)pyrimidin-2-ylamino)-2-methyl-phenyl)-2,5-diaza-bicyclo[2.2.1]heptan-2-yl)ethanone] |
| < 0.5 | < 10 | 0.5 to 5 | < 0.01 | Cc1cnc(Nc2cccc(N3CCN(C)CC3)c2)nc1Nc1ccc2c(n1)N(Cc1ccccc1)C(=O)CO2 [compound 122, 4-benzyl-6-(5-methyl-2-(3-(4-methylpiperazin-1-yl)phenylamino)pyrimidin-4-ylamino)-2H-pyrido[3,2-b][1,4]oxazin-3(4H)-one] |
| 0.5 to 5 | < 10 | ≥ 10 | – | Cc1cc(Nc2ncc(C)c(Nc3ccc4c(n3)N(C)C(=O)CO4)n2)ccc1N1CCN(C)CC1 [compound 95, 4-methyl-6-(5-methyl-2-(3-methyl-4-(4-methylpiperazin-1-yl)phenylamino)pyrimidin-4-ylamino)-2H-pyrido[3,2-b][1,4]oxazin-3(4H)-one] |
| ≥ 10 | – | ≥ 10 | – | Cc1cc(Nc2ncc(F)c(Nc3ccc4c(n3)N(CC3CCCCC3)C(=O)CO4)n2)ccc1N1CCN(C)CC1 [compound 113, 4-(cyclohexylmethyl)-6-(5-fluoro-2-(3-methyl-4-(4-methylpiperazin-1-yl)phenylamino)pyrimidin-4-ylamino)-2H-pyrido[3,2-b][1,4]oxazin-3(4H)-one] |
| < 0.5 | < 10 | < 0.5 | – | CN1CCN(c2cccc(Nc3ncc(F)c(Nc4ccc5c(n4)NC(=O)CO5)n3)c2)CC1 [compound 157, 6-(5-fluoro-2-(3-(4-methylpiperazin-1-yl)phenylamino)pyrimidin-4-ylamino)-2H-pyrido[3,2-b][1,4]oxazin-3(4H)-one] |
| < 0.5 | < 10 | 0.5 to 5 | – | CCCN1CCOc2ccc(Nc3nc(Nc4ccc(N5CC6CC5CN6S(C)(=O)=O)c(C)c4)ncc3C)nc21 (stereo not shown) [compound 33, 5-methyl-N2-(3-methyl-4-(5-(methylsulfonyl)-2,5-diazabicyclo[2.2.1]heptan-2-yl)phenyl)-N4-(4-propyl-3,4-dihydro-2H-pyrido[3,2-b][1,4]oxazin-6-yl)pyrimidine-2,4-diamine] |
| 0.5 to 5 | < 10 | 0.5 to 5 | – | CCCN1C(=O)COc2ccc(Nc3nc(Nc4ccc(N5CC6CC5CN6S(C)(=O)=O)c(C)c4)ncc3C)nc21 (stereo not shown) [compound 32, 6-(5-methyl-2-(3-methyl-4-(5-(methylsulfonyl)-2,5-diazabicyclo[2.2.1]heptan-2-yl)phenylamino)pyrimidin-4-ylamino)-4-propyl-2H-pyrido[3,2-b][1,4]oxazin-3(4H)-one] |
| < 0.5 | < 10 | 0.5 to 5 | < 0.01 | Cc1ccc(Nc2ncc(F)c(Nc3ccc4c(n3)NCCO4)n2)cc1N1CC2CC1CN2C (stereo not shown) [compound 36, N4-(3,4-dihydro-2H-pyrido[3,2-b][1,4]oxazin-6-yl)-5-fluoro-N2-(4-methyl-3-(5-methyl-2,5-diazabicyclo[2.2.1]heptan-2-yl)phenyl)pyrimidine-2,4-diamine] |
